These results are taken from US20100202971A1, “COMPOUND HAVING TUMOR-RESIDENT PROPERTY” (priority 2009, published 2010).

The series deals with Human giant cell lung carcinoma cells Lu65. The series is described as follows: Biological distribution of biotinated αSQAP in tumor of tumor-bearing nude mice (Alexa 488 avidin staining of tumor slices). The format is in vivo, KSN nude mice. The settings on record: tail vein, one hour after administration, FIG. 2. How it is done:
Human giant cell lung carcinoma cells Lu65 were transplanted into six-week-old male KSN nude mice in a number of 1×10^6 for each of the mice, and the mice were bred for 14 days to form a tumor mass of about 100-200 mm^3 volume in each of the mice.
Thereafter, three mice were assigned to each of the following four groups (1) to (4):
(1) a control group wherein physiological saline was administered,
(2) a high dose group wherein biotinated αSQAP was administered in a dose of 50 mg/kg,
(3) a middle dose group wherein biotinated αSQAP was administered in a dose of 5 mg/kg, and […]
The slice was observed by a fluorescence microscope, and the slice was made into an image. Data on the image were input to a computer, and then positive signals of the image were quantified according to image analysis software.
Specifically, binary image processing based on Photoshop was performed to estimate a tumor region emitting fluorescence through the labeling material Alexa 488 in the slice. Thereafter, a portion (fraction) containing tumor tissues was selected from the visual field, and the number of pixels of the Alexa 488 positive region (black region) and the entire region were counted and the ratio of the positive region was calculated according to the formula: […]

Take `O=C(CCCC[C@@H]1SC[C@@H]2NC(=O)N[C@@H]21)NCCC(=O)OCCCO[C@H]1O[C@H](CS(=O)(=O)[O-])[C@@H](O)[C@H](O)[C@H]1O.O=C(CCCC[C@@H]1SC[C@@H]2NC(=O)N[C@@H]21)NCCC(=O)OCCCO[C@H]1O[C@H](CS(=O)(=O)[O-])[C@@H](O)[C@H](O)[C@H]1O.[Ca+2]` [biotinated αSQAP, 3-O-(6-sulfo-α-D-quinovopyranosyl)-1-O-(biotinyl-β-alanyl)-propane-1,3-diol calcium salt]: the amount in tumor result (50 mg/kg) was “large”. For the same compound, the “staining of tumor tissues (Alexa 488 positive region)” value (high dose group 50 mg/kg) is “intensely dyed”.
